Test results published in US20090044291A1, “DROUGHT-RESISTANT PLANTS AND METHOD FOR PRODUCING THE PLANTS” (D-Helix, priority 2006, published 2009).
Read-outs that look alike come from different tables or passages of the source.

Molecular target: T1, natural ABAR/CHLH protein (Arabidopsis thaliana, UniProt Q9FNB0)
T1 construct: 50 μg proteins of the crude extracts from two-week-old Arabidopsis seedlings; from tissue; host or cells: crude extracts of two-week-old Arabidopsis seedlings / leaves of gl1 (WT), RNAi line 12 and overexpressor line 1
T1 sequence (Q9FNB0 50-1381): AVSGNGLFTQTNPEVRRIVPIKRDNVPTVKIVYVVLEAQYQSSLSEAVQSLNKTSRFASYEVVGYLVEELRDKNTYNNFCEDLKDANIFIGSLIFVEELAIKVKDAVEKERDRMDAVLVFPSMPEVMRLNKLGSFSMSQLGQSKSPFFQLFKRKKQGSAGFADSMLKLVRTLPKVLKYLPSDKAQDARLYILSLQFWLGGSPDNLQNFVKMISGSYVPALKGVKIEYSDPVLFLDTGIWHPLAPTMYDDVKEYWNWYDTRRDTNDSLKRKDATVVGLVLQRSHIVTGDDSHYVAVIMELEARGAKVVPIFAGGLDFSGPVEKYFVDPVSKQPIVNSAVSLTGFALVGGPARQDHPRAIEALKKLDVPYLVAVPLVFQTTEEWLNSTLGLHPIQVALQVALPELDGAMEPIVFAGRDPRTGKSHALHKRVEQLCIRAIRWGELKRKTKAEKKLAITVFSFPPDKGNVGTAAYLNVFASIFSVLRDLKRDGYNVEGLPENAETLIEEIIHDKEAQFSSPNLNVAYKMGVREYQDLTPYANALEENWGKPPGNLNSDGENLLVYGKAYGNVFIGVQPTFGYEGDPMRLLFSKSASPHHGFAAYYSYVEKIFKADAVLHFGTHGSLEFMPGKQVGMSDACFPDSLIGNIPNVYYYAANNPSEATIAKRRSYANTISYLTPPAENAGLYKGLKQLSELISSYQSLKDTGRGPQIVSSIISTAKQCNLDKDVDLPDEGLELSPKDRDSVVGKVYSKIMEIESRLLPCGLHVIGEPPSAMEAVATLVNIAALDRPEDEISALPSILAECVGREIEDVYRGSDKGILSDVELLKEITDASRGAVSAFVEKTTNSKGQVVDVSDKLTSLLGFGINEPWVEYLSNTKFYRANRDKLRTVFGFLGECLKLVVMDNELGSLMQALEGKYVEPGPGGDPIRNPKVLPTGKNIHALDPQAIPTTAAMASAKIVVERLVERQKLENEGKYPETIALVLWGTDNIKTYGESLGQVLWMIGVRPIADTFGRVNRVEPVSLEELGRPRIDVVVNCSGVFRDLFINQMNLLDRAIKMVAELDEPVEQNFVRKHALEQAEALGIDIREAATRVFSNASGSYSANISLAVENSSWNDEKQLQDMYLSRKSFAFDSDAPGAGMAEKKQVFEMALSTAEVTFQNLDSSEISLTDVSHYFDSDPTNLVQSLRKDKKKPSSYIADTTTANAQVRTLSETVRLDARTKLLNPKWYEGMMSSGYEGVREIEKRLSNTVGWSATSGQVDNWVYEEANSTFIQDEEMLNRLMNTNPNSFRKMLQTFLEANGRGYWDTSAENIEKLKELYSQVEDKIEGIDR
Test: ABA binding assay with crude extracts of leaves (WT, RNAi, OE lines)
Experimental: The ABA-binding activity of ABAR was assayed according to the previously described procedures (Zhang, D. P. et al., Plant physiol. 128:714-725 (2002)) with modifications. The binding medium (medium A) contained 50 mM Tris-HCl (pH 7.0), 2 mM MgCl2, 1 mM CaCl2, and 250 mM mannitol. The medium for extracting the Arabidopsis natural ABAR/CHLH protein (medium B) was the medium A supplemented with 2 mM 1,4-dithiothreitol (DTT), 1 mM phenylmethyl sulfonyl fluoride (PMSF), […] leupeptin, and […] pepstin A but minus 250 mM mannitol. [^3H](+)ABA (American Radiolabeled Chemicals, 2.37×10^12 Bq mmol^−1, purity 98.4%) at 30 nM, or at a step gradient of concentrations from 0 to 70 nM (when analyzing ABA binding kinetics, see FIG. 1a, d1), together with 2 μg purified yeast-expressed ABAR/CHLH protein or 50 μg proteins of the crude extracts from two-week-old Arabidopsis seedlings, was added into the medium A. The total volume for the binding assays was adjusted to 200 μl. The mixtures were incubated at 25° C. for 30 min, and then quickly placed on ice. Following the addition of 100 μl 0.5% (w/v) Dextran T70-coated charcoal (DCC) to remove the free [^3H]ABA by adsorption, the mixtures were maintained on ice for 5 min, and then centrifuged to remove DCC before the radioactivity in the supernatant was counted. The specific binding was determined by the difference between the radioactivity bound to the immuno-purified ABAR protein or crude extracts of Arabidopsis seedlings incubated only with [^3H]ABA (total binding) and radioactivity bound in the presence of 1,000-fold molar excess of unlabeled (+)-ABA (Sigma; non-specific binding. Non-specific binding in all the assays was lower than 10% of the total binding, see FIG. 1a, d1). The unlabeled ABA was added into the incubation medium at the same time with [^3H]ABA. The ABA-binding activity of the crude ABA-binding protein from Arabidopsis seedling was expressed as the number of nanomoles of [^3H]ABA specifically bound per gram of protein, and that of the immuno-purified ABAR protein as the number of moles of [^3H]ABA per mole of protein. The stereo-specificity of the ABA-binding was assayed as described previously (Zhang, D. P. et al., Plant physiol. 128:714-725 (2002)). […] The conditions of incubation were the same as described above (the incubation medium containing 30 nM [^3H]ABA), and the two ABA isomers and (+)-ABA were assayed in the concentrations ranging from 1 to 1000-fold molar excess of [^3H]ABA.
For the assays of ABA binding in transgenic ABAR-RNAi and -overexpressor plants, we used more than three lines for each type of the transgenic plants and the results obtained were similar. Thus, only were the data with RNAi line 12 and overexpressor line 1 (see FIG. 5) shown in the text.

With `CC1=CC(=O)CC(C)(C)C1(O)/C=C/C(C)=C\C(=O)O` (stereo not shown) [ABA, abscisic acid] the Kd (across WT, RNAi and overexpressing leaf extracts, read-out: Kd) was 0.035 to 0.038 µM, the Bmax (leaf extracts of RNAi transgenic plants) was 25 nmol/g and the Kd (leaf extracts of RNAi transgenic plants, read-out: Kd) was 0.036 µM. The Bmax (leaf extracts of overexpressors of ABAR/CHLH gene (OE, line 1)) was 80 nmol/g, the Kd (leaf extracts of overexpressors of ABAR/CHLH gene (OE, line 1), read-out: Kd) was 0.038 µM and the “Bmax (maximum binding)” value (leaf extracts of wild-type plants (WT)) was 60 nmol ABA g^−1 crude protein. For the same compound, the Kd (leaf extracts of wild-type plants (WT), read-out: Kd (equilibrium dissociation constant)) was 0.035 µM.
